Target: Transcription factor p65 (Homo sapiens) (UniProt Q04206)
Assay: Inhibition of NF-kappaB DNA binding by EMSA

Sequence of Transcription factor p65 (Homo sapiens) (Q04206 whole entry): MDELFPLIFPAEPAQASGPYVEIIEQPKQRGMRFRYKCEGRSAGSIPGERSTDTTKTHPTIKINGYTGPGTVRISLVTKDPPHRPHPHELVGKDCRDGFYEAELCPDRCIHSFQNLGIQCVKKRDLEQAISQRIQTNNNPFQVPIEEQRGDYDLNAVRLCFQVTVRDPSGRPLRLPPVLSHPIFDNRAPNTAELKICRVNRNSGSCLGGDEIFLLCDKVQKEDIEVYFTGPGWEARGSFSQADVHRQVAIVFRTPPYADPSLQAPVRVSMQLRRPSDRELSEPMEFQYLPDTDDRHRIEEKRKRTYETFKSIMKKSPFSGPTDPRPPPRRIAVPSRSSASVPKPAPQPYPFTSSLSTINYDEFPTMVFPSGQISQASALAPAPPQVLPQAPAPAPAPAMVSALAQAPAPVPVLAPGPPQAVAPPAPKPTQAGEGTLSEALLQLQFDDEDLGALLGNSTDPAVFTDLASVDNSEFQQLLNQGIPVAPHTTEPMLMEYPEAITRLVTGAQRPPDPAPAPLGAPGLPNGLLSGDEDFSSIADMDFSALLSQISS

| SMILES | IC100 |
| --- | --- |
| C=C1C(=O)O[C@@H]2[C@H]3C(C)=C(Cl)C(=O)C3=C(C)CC[C@@H]12 | 20 µM |
| C=C1C(=O)O[C@@H]2C[C@H](C)[C@@H]3CC(=O)C(C)=C3C[C@H]12 | 50 µM |
| C=C(C)C(=O)OC/C1=C\C[C@@H]2C(=C)C(=O)O[C@H]2C/C(CO)=C/CC1 | 50 µM |
| C=C1C(=O)O[C@@H]2/C=C(/CO)C3=CC(=O)[C@@](C)(C[C@@H](OC(=O)/C(C)=C/C)[C@@H]12)O3 | 5 µM |
| C=C(C)C(=O)O[C@H]1[C@H]2C(=C)C(=O)O[C@@H]2[C@@H](O)C(=C)CC/C=C(/C=O)[C@@H]1OC(C)=O | 10 µM |
| C=C1C(=O)O[C@@H]2/C=C(/CO)C3=CC(=O)[C@@](C)(C[C@H](OC(=O)/C(C)=C\C)[C@@H]12)O3 | 5 µM |
| C=C1[C@H](O)C[C@@H](O)[C@]2(C)CC[C@H]3C(=C)C(=O)O[C@@H]3[C@@H]12 | 200 µM |
| C=C1[C@H](O)C[C@H](O)[C@]2(C)CC[C@H]3C(=C)C(=O)O[C@@H]3[C@@H]12 | 100 µM |
| C/C=C(\C)C(=O)O[C@H]1[C@@H]2[C@H](C)C(=O)O[C@@H]2C[C@@H](C)[C@@H]2C=CC(=O)[C@]21C | 100 µM |
| C=C1C(=O)O[C@@H]2/C=C(/C)[C@]3(O)O[C@](C)(C[C@@H](OC(=O)/C(C)=C\C)[C@@H]12)C[C@@H]3O | 50 µM |
| C=C1C(=O)O[C@@H]2[C@H]3C(C)=CC(=O)C3=C(C)CC[C@@H]12 | 50 µM |
| C=C1C(=O)O[C@@H]2[C@H]3C(C)=CC(=O)C3=C(C)C[C@@H](OC(=O)[C@]3(C)O[C@@H]3C)[C@@H]12 | 20 µM |
| C=C1C(=O)O[C@H]2C/C(CO)=C/CC/C(COC(=O)C(C)C)=C/C[C@H]12 | 50 µM |
| C=C1C(=O)O[C@]23C[C@H]1CCC(CO)=C2C(=O)C=C3C | 50 µM |
| C=C1C(=O)O[C@H]2C[C@]3(C)O[C@@H]3C[C@@H](OC(C)=O)C3=C[C@@H](OC3=O)[C@H]12 | 10 µM |
| C=C1C(=O)O[C@H]2C[C@H](C)C3=CC(=O)[C@H](C)C3C[C@H]12 (stereo partly specified) | 20 µM |
| C=C(C)C(=O)O[C@@H]1/C=C(/C=O)CCCC(=C)[C@H](O)[C@H]2OC(=O)C(=C)[C@@H]21 | 5 µM |
| CC[C@@H](C)[C@@]1(O)O[C@H]2C[C@@]3(C)OC(=CC3=O)/C(CO)=C\[C@H]3OC(=O)[C@@]1(C)C23 (stereo partly specified) | 100 µM |
| C=C1C(=O)O[C@@H]2C[C@@]3(C)[C@H](O)CC[C@@](O)(COC(=O)C(C)C)[C@@H]3C[C@H]12 | 200 µM |
| C=C1[C@@H]2[C@H]3OC(=O)C(=C)[C@@H]3CC[C@](C)(O)[C@@H]2C[C@@H]1O | 200 µM |

Second part, the molecule after the results:

| IC100 | SMILES |
| --- | --- |
| 50 µM | C=C1C[C@@H]2OC(=O)C(=C)[C@H]2[C@H](O)/C=C(\C)CCC1=O |
| 50 µM | C=C1C(=O)O[C@@H]2/C=C(\C)[C@H](OC(C)=O)C/C=C(/C)CC[C@@H]12 |
| 5 µM | C=C(C)C(=O)O[C@H]1/C(C=O)=C\CC/C(COC(C)=O)=C/[C@H]2OC(=O)C(=C)[C@@H]2[C@@H]1O |
| 5 µM | C=C1C(=O)O[C@@H]2/C=C(/C)C3=CC(=O)[C@@](C)(C[C@@H](OC(=O)/C(C)=C/C)[C@@H]12)O3 |
| 10 µM | C=C(C)C(=O)O[C@H]1C/C(C)=C/C(=O)/C=C(/C)[C@H](O)[C@H]2OC(=O)C(=C)[C@@H]21 |
| 50 µM | C=C1C(=O)O[C@@H]2[C@H]3C(CO)=CC(=O)C3=C(C)CC[C@@H]12 |
| 200 µM | C=C1C(=O)O[C@H]2/C=C(\C)[C@@H](O)CC/C(C)=C/[C@@H](O)[C@H]12 |
| 10 µM | C=C(C)C(=O)O[C@H]1C[C@@]2(C)OC(=CC2=O)C(=C)[C@@H](O)[C@H]2OC(=O)C(=C)[C@@H]21 |
| 100 µM | C=C1[C@@H]2[C@H]3OC(=O)C(=C)[C@@H]3CCC(=C)[C@@H]2C[C@@H]1OC(C)=O |
| 200 µM | C=C1C(=O)O[C@@H]2C[C@H](C)[C@@]3(O)CC[C@@](C)(C[C@@H](OC(=O)C(C)C)[C@@H]12)O3 |
| 20 µM | C=C1C(=O)O[C@@H]2[C@H]3C(C)=CC[C@H]3[C@](C)(O)C[C@H](OC(C)=O)[C@@H]12 |

Source: ChEMBL document CHEMBL1146082, “Development of a structural model for NF-kappaB inhibition of sesquiterpene lactones using self-organizing neural networks” (J Med Chem, 2006)
